Results as given in ChEMBL document CHEMBL2163311, “Anti-herpes simplex virus efficacies of 2-aminobenzamide derivatives as novel HSP90 inhibitors” (Bioorg Med Chem Lett, 2012).
The source made the active and inactive calls. The calls are words filed in the database; no cut-off is given here.

What was measured:
[1] = Cytotoxicity against african green monkey Vero cells assessed as inhibition of cell viability after 48 hrs by MTT assay; type: cell-based; details: chlorocebus sabaeus
[2] = tested on: Human alphaherpesvirus 1; assay: Antiviral activity against HSV1 infected herpes simplex keratitis New zealand rabbit model assessed as reduction in corneal epithelia involvement score at 0.025% to 0.1% administered twice daily as gel 24 hrs post inoculation measured on day 9 post infection; type: functional, organism-based; details: Cornea
[3] = Selectivity index, ratio of CC50 for african green monkey Vero cells to EC50 for HSV1 strain F ATCC VR733 infected in african green monkey Vero cells; type: toxicity, cell-based; details: read-out: Ratio CC50/EC50
[4] = tested on: Human alphaherpesvirus 1; assay: Antiviral activity against HSV1 strain F ATCC VR733 infected in african green monkey Vero cells assessed as inhibition of cytopathic effect after 48 hrs by plaque reduction assay; type: functional, organism-based; details: for EC50: Human alphaherpesvirus 1, strain F ATCC VR733, Vero
[5] = tested on: Human alphaherpesvirus 1; assay: Antiviral activity against HSV1 strain F ATCC VR733 infected in african green monkey Vero cells assessed as inhibition of cytopathic effect at 3.5 uM after 48 hrs by plaque reduction assay; type: functional, organism-based
[6] = tested on: Human alphaherpesvirus 2; assay: Antiviral activity against HSV2 strain 333 infected in african green monkey Vero cells assessed as inhibition of cytopathic effect after 48 hrs by plaque reduction assay; type: functional, cell-based; details: for EC50: Human alphaherpesvirus 2, strain 333, Vero
[7] = Selectivity index, ratio of CC50 for african green monkey Vero cells to EC50 for HSV2 strain 333 infected in african green monkey Vero cells
[8] = tested on: Human alphaherpesvirus 2; assay: Antiviral activity against HSV2 strain 333 infected in african green monkey Vero cells assessed as inhibition of cytopathic effect at 3.5 uM after 48 hrs by plaque reduction assay; type: functional, cell-based
[9] = tested on: Human alphaherpesvirus 1; assay: Antiviral activity against HSV1 infected herpes simplex keratitis New zealand rabbit model assessed as reduction in viral DNA level in corneal sample compound administered twice daily as gel 24 hrs post inoculation measured on day 9 post infection by RT-PCR analysis; type: functional, organism-based; details: Cornea
[10] = tested on: Human alphaherpesvirus 1; assay: Antiviral activity against HSV1 infected herpes simplex keratitis New zealand rabbit model assessed as reduction in viral DNA level in corneal sample at 0.025% to 0.1% administered twice daily as gel 24 hrs post inoculation measured on day 9 post infection by RT-PCR analysis; type: functional, organism-based; details: Cornea
[11] = tested on: Human alphaherpesvirus 2; assay: Antiviral activity against HSV2 strain 333 infected in african green monkey Vero cells assessed as inhibition of cytopathic effect at 4 uM after 48 hrs by plaque reduction assay; type: functional, cell-based
[12] = tested on: Human alphaherpesvirus 1; assay: Antiviral activity against HSV1 infected herpes simplex keratitis New zealand rabbit model at 0.025% to 0.1% administered twice daily as gel 24 hrs post inoculation measured on day 9 post infection; type: functional, organism-based
[13] = Cytotoxicity against human MRC5 cells after 48 hrs by MTT assay; type: cell-based
[14] = tested on: Human alphaherpesvirus 1; assay: Antiviral activity against HSV1 strain F ATCC VR733 infected in african green monkey Vero cells assessed as inhibition of cytopathic effect at 4 uM after 48 hrs by plaque reduction assay; type: functional, organism-based
[15] = tested on: Human alphaherpesvirus 1; assay: Antiviral activity against HSV1 infected herpes simplex keratitis New zealand rabbit model at 0.1% administered twice daily as gel 24 hrs post inoculation measured on day 9 post infection; type: functional
[16] = tested on: Human alphaherpesvirus 1; assay: Antiviral activity against HSV1 infected herpes simplex keratitis New zealand rabbit model at 0.025% administered twice daily as gel 24 hrs post inoculation measured on day 9 post infection; type: functional

| SMILES | CC50 at 48 h [1] [nM] | Activity [2] | selectivity ratio [3] | EC50 [4] [nM] | inhibition [5] | EC50 [6] [nM] | Ratio CC50/EC50 [7] | inhibition [8] | Activity [9] | Activity [10] | inhibition [11] | Activity [12] | CC50 at 48 h [13] [nM] | inhibition [4] | inhibition [6] | inhibition [14] | Activity [15] [%] | Activity [16] [%] |
| --- | --- | --- | --- | --- | --- | --- | --- | --- | --- | --- | --- | --- | --- | --- | --- | --- | --- | --- |
| Nc1nc2c(ncn2COCCO)c(=O)[nH]1 [ACYCLOVIR] | > 200000 | Active | > 167 | 1200 | Active | 1870 | >106.95 | Active | Dose-dependent effect | Active | – | – | – | – | – | – | – | – |
| Cc1cn(-c2ccc(C(N)=O)c(N[C@H]3CC[C@H](O)CC3)c2)c2c1C(=O)CC(C)(C)C2 | 12900 | Active | 12.6 | 1030 | – | 1000 | 12.94 | – | Dose-dependent effect | Active | Active | Active | 24900 | Dose-dependent effect | Dose-dependent effect | Active | – | – |
| Cc1nn(-c2ccc(C(N)=O)c(N[C@H]3CC[C@H](O)CC3)c2)c2c1C(=O)CC(C)(C)C2 | 27100 | Active | 12.1 | 2240 | – | 1750 | 15.46 | – | Dose-dependent effect | Active | Active | Active | 54100 | Dose-dependent effect | Dose-dependent effect | Active | 83.76 | 74.23 |
| CC1(C)CC(=O)c2c(C(F)(F)F)nn(-c3ccc(C(N)=O)c(N[C@H]4CC[C@H](O)CC4)c3)c2C1 [SNX-2112] | 13300 | Active | 5.9 | 2260 | – | 1850 | 7.21 | – | Dose-dependent effect | Active | Active | Active | 21300 | Dose-dependent effect | Dose-dependent effect | Active | – | – |
